Assay results from ChEMBL document CHEMBL1126481, “Low molecular weight neurokinin NK2 antagonists” (Bioorg Med Chem Lett, 1993).
Peptide text beside a SMILES is read from it.

How the values were obtained:
[1] = target: T1, Substance-K receptor (Rattus norvegicus) (UniProt P16610); assay: In vitro for antagonism against neurokinin NK2 receptor in rat colon muscularis mucosae; format: functional, tissue-based; settings: Muscularis mucosa
T1 sequence (whole entry): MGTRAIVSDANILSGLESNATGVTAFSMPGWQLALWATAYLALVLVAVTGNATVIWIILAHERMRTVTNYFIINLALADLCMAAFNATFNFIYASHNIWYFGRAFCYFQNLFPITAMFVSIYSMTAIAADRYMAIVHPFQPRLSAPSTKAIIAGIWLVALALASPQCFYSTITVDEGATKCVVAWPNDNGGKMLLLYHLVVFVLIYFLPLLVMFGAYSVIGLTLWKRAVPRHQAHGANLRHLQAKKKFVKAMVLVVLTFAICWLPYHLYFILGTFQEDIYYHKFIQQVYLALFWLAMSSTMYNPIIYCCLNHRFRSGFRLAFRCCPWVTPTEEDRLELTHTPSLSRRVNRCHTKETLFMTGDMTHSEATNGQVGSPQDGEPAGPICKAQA

[2] = target: T2, Substance-K receptor (Cavia porcellus) (UniProt Q64077); assay: The compound was tested […] for antagonism against neurokinin NK2 receptor in isolated guinea pig trachea.; format: functional
T2 sequence (whole entry): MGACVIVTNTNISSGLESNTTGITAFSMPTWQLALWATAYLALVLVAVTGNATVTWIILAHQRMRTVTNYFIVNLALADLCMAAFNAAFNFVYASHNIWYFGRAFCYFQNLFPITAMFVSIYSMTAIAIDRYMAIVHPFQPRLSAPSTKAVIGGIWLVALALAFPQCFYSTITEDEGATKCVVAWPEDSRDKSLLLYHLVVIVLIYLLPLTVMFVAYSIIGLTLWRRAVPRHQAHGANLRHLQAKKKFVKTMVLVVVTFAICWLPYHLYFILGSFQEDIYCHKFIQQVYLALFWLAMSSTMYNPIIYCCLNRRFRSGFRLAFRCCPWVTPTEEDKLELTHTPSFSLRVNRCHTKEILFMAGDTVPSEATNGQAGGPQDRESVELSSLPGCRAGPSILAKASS

[3] = target: Substance-P receptor (Cavia porcellus) (UniProt P30547); assay: The compound was tested […] for antagonism against neurokinin NK1 receptor in isolated guinea pig trachea.; format: functional
[4] = Biological half life when administered at 5 umol/kg intravenously to guinea pig in GR-64349 antagonism; format: ADME, organism-based, Cavia porcellus; settings: in vivo, iv
[5] = Biological half life when administered at 0.1 umol/kg intravenously to guinea pig in GR-64349 antagonism; format: ADME, organism-based, Cavia porcellus; settings: in vivo, iv
Oryctolagus cuniculus = organism: Oryctolagus cuniculus; assay: Tested for antagonistic activity of compound in endothelium-deprived rabbit pulmonary artery; format: functional; settings: read-out: pA2 (converted)
[6] = target: T2, Substance-K receptor (Cavia porcellus); assay: The compound was tested in vitro for antagonism against Tachykinin receptor 2 in isolated guinea pig trachea; format: functional, tissue-based
[7] = target: T1, Substance-K receptor (Rattus norvegicus); assay: The compound was tested in vitro for antagonism against Tachykinin receptor 2 in rat colon muscularis mucosae.; format: functional, tissue-based; settings: Muscularis mucosa

Substance-P receptor (Cavia porcellus), sequence (P30547 whole entry): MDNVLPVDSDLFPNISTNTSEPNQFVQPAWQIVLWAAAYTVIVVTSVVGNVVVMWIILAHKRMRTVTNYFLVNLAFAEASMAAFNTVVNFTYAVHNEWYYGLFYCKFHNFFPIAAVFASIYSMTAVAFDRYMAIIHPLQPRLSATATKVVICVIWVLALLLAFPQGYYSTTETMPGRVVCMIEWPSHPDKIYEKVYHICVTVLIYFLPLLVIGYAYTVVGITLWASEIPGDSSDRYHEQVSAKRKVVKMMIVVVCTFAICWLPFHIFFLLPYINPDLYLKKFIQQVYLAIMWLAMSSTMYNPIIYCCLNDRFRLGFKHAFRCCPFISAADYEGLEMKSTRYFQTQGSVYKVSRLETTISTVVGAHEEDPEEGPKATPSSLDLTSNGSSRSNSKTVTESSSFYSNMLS

Row | Compound | pKB [1] | further results
1 | C[C@H](NC(=O)c1ccccc1)C(=O)N[C@@H](C)C(=O)N[C@H](Cc1c[nH]c2ccccc12)C(=O)N[C@@H](Cc1ccccc1)C(=O)N(C)C | 8.56 | 
2 | CC(C)CCN(C)C(=O)[C@@H](Cc1c[nH]c2ccccc12)NC(=O)[C@H](C)NC(=O)c1c[nH]c(-c2ccccc2)n1 | 7.64 | pKB [2]: 7.9; pKB [3]: 4.9; half-life [4]: 140 min
3 | C[C@H](NC(=O)c1ccccc1)C(=O)N[C@@H](C)C(=O)N[C@H](Cc1c[nH]c2ccccc12)C(=O)N[C@@H](Cc1ccccc1)C(=O)O | 6.6 | 
4 | C[C@H](NC(=O)CNC(=O)C1CCCCC1)C(=O)N[C@H](Cc1c[nH]c2ccccc12)C(=O)N[C@@H](Cc1ccccc1)C(=O)N(C)C (HELM PEPTIDE1{[O=C(C1CCCCC1)[*:2]].G.A.[dW].F.[CN(C)[*:1]]}$$$$V2.0) | 9.05 | pKB [2]: 9.3; pKB [3]: 5.1; half-life [5]: 26 min
5 | CC(=O)NC1(c2ccccc2)CCN(CC[C@H](CN(C)C(=O)c2ccccc2)c2ccc(Cl)c(Cl)c2)CC1 [SAREDUTANT] |  | Kb (Oryctolagus cuniculus): 0.0501 nM
6 | C[C@H](NC(=O)CNC(=O)c1ccccc1)C(=O)N[C@H](Cc1c[nH]c2ccccc12)C(=O)N[C@@H](Cc1ccccc1)C(=O)N(C)C | 8.87 | 

Second part, led by results:

Row | pKB [1] | Compound | further results
7 | 8 | CC(C)CCN(C)C(=O)[C@@H](Cc1c[nH]c2ccccc12)NC(=O)[C@H](C)NC(=O)[C@H](C)NC(=O)c1ccccc1 | 
8 | 6.45 | C[C@H](NC(=O)c1ccccc1)C(=O)N[C@@H](C)C(=O)N[C@H](Cc1c[nH]c2ccccc12)C(=O)N(C)C | 
9 | 6.8 | C[C@H](NC(=O)c1ccccc1)C(=O)N[C@@H](C)C(=O)N[C@H](C#N)Cc1c[nH]c2ccccc12 | pKB [2]: 7.4; half-life [4]: 20 min
10 | 7.4 | C[C@H](NC(=O)c1ccccc1)C(=O)N[C@@H](C)C(=O)N[C@H](Cc1c[nH]c2ccccc12)C(=O)N(C)CCc1ccccc1 | 
11 | 6.02 | C[C@H](NC(=O)c1ccccc1)C(=O)N[C@@H](C)C(=O)NCCc1c[nH]c2ccccc12 | 
12 | < 5 | CC(Cc1c[nH]c2ccccc12)NC(=O)[C@H](C)NC(=O)[C@H](C)NC(=O)c1ccccc1 (some centres not stated) | pKB [6]: 7.4; pKB [7]: 6.66
